Counter-ions that a name gives are not always drawn.
What was measured:
rats [1] = test: Radial arm maze task in rats, an in vivo test for learning and memory; design: species or system rat; details: MK-801 0.1 mg/kg, i.p., compared to control, p<0.01
Description: The test was performed as previously described (Zhang, H.-T., Crissman, A. M., Dorairaj, N. R., Chandler, L. J., and O'Donnell, J. M., Neuropsychopharmacology, 2000, 23, 198-204.). Five days after initial housing, rats (male Spraque-Dawley (Harlan) weighing 250 to 350 g) were placed in the eight-arm radial maze (each arm was 60×10×12 cm high; the maze was elevated 70 cm above the floor) for acclimation for two days. Rats were then placed individually in the center of the maze for 5 minutes with food pellets placed close to the food wells, and then, the next day, in the wells at the end of the arms; 2 sessions a day were conducted. Next, four randomly selected arms were then baited with one pellet of food each. The rat was restricted to the center platform (26 cm in diameter) for 15 seconds and then allowed to move freely throughout the maze until it collected all pellets of food or 10 minutes passed, whichever came first. Four parameters were recorded: 1) working memory errors, i.e., entries into baited arms that had already been visited during the same trial; 2) reference memory errors, i.e., entries into unbaited arms; 3) total arm entries; and 4) the test duration (seconds), i.e., the time spent in the collection of all the pellets in the maze. […]
(§1) All data were analyzed by analyses of variance (ANOVA); individual comparisons were made using Kewman-Keuls tests. […]

rats [2] = test: Passive avoidance in rats, an in vivo test for learning and memory; design: species or system rat; details: MK-801 0.1 mg/kg pretreatment, compared to the vehicle, p<0.001, 24 hours after electric shock
Description: The test was performed as previously described (Zhang, H.-T., Crissman, A. M., Dorairaj, N. R., Chandler, L. J., and O'Donnell, J. M., Neuropsychopharmacology, 2000, 23, 198-204.). The apparatus (Model E10-16SC, Coulbourn Instruments, Allentown, Pa.) consisted of a two-compartment chamber with an illuminated compartment connected to a darkened compartment by a guillotine door. The floor of the darkened compartment consisted of stainless steel rods through which an electric foot-shock could be delivered from a constant current source. All experimental groups were first habituated to the apparatus the day before the start of the experiment. During the training, the rat (Male Spraque-Dawley (Harlan) weighing 250 to 350 g) was placed in the illuminated compartment facing away from the closed guillotine door for 1 minute before the door was raised. The latency for entering the darkened compartment was recorded. After the rat entered the darkened compartment, the door was closed and a 0.5 mA electric shock was administered for 3 seconds. […] The latency for entering the darkened compartment was recorded for up to 180 seconds, at which time the trial was terminated.
as §1

[3] = Solubility of the mesylate salt in H2O; format: physicochemical
Description: To obtain the methansulphonate salt (mesylate salt), 4 ml of 0.1N CH3SO3H in EtOAc was added to a solution of 145 mg (0.4 mmol) 6-cyclopropylamino-9-(2-fluorobenzyl)-2-trifluoromethylpurine in EtOAc. Then, 1 ml of hexane was added to a warm solution and the resultant mixture was allowed to crystallize (within a refrigerator). The solid was collected to give 148 mg of the mesylate salt. […] M.p. 167.5-169.0 C; m.p. 114-118 C for free base.

Structure (SMILES) | frequency of reference memory errors (rats [1]) | frequency of working memory errors (rats [1]) | latency for entering the darkened compartment (retention test) (rats [2]) | solubility in H2O [3]
C[C@]12N[C@H](Cc3ccccc31)c1ccccc12 [MK-801] | increased | increased | markedly reduced | 
Fc1ccccc1Cn1cnc2c(NC3CC3)nc(C(F)(F)F)nc21 [Example 4 mesylate salt, 6-cyclopropylamino-9-(2-fluorobenzyl)-2-trifluoromethylpurine] |  |  |  | relatively insoluble
